Experimental findings from paper PMC6017136, “Efficient Synthesis and Bioactivity of Novel Triazole Derivatives” (Molecules : A Journal of Synthetic Chemistry and Natural …, 2018) are described below.

Holding throughout (experiment): microbe, parasite or virus in culture
Test [1] concerns Phytophthora capsici P. CapasiciLeonian. As to conditions: read-out: Inhibition Ratio (%) / P. CapasiciLeonian.
Another test deals with Botrytis cinerea Pers. The conditions noted are these: read-out: Inhibition Ratio (%) / B. cinerea.
In test [2] the test system is Fusarium oxysporum Schl. F.sp. vasinfectum (Atk.) Snyd. & Hans. As to conditions: read-out: Inhibition Ratio (%) / Fusarium oxysporum Schl. F.sp. vasinfectum (Atk.) Snyd. & Hans.
The test system of test [3] is Sclerotinia sclerotiorum (Lib.) de Bary. The conditions noted are these: read-out: Inhibition Ratio (%) / S. sclerotiorum.
The subject of the next test is Pyricularia oryzae Cav. The conditions noted are these: read-out: Inhibition Ratio (%) / Pyricularia oryzae Cav.

SMILES strings stand for the structures.

With `OC1O[C@H](Cn2cc(-c3ccc(Cl)cc3)nn2)[C@H](OCc2ccccc2)[C@H]1O` (stereo partly drawn) [4-f, Furan glucosyl-1,2,3-triazole (4-f)], the inhibition at 50 µg/mL in test [1] worked out at 38.7%; in the test with Botrytis cinerea Pers, 22.2%; in test [2], 43.1%; in test [3], 31.7%; with Pyricularia oryzae Cav., 40.2%.
For `CC(O)c1cn(C[C@H]2OC(O)[C@H](O)[C@H]2OCc2ccccc2)nn1` (stereo partly drawn) [4-g, Furan glucosyl-1,2,3-triazole (4-g)], in that order: 24.5%, 12.1%, 20.9%, 13.5% and 21.3%.
For `N#Cc1c(Cl)c(Cl)c(Cl)c(C#N)c1Cl` [Chlorothalonil], in that order: 94.2%, 98%, 94.2%, 95.5% and 89.2%.
Consider `CO[C@H]1[C@@H](Cn2cc(-c3ccccc3)nn2)OC(O)[C@@H]1O` (stereo partly drawn) [3-a, Furan glucosyl-1,2,3-triazole (3-a)], for which the inhibition at 50 µg/mL in test [1] is 40.1%; in the test on Botrytis cinerea Pers it was 33.3%; in test [2], 58.7%; in test [3], 30.3%; with Pyricularia oryzae Cav., 61.2%.
For `CO[C@H]1[C@@H](Cn2cc(-c3ccc(Cl)cc3)nn2)OC(OC(C)=O)[C@@H]1OC(C)=O` (stereo partly drawn) [5-f, Furan glucosyl-1,2,3-triazole (5-f)], in that order: 68.2%, 27.6%, 71.5%, 56.1% and 60.5%.
With `CO[C@H]1C(Cn2cc(-c3ccccc3)nn2)OC(OC(C)=O)[C@@H]1OC(C)=O` (stereo partly drawn) [5-a, Furan glucosyl-1,2,3-triazole (5-a)], the inhibition at 50 µg/mL stood at 42.3% in test [1]; 36.1% in the test with Botrytis cinerea Pers; 61.3% in test [2]; 57.6% in test [3]; 62.7% with Pyricularia oryzae Cav..
For `CO[C@H]1[C@@H](Cn2cc(C(C)O)nn2)OC(O)[C@@H]1O` (stereo partly drawn) [3-g, Furan glucosyl-1,2,3-triazole (3-g)], the inhibition at 50 µg/mL was determined as 23.1% in test [1]; 11.5% in the test on Botrytis cinerea Pers; 23.4% in test [2]; 13.7% in test [3]; 21.5% in the test on Pyricularia oryzae Cav..
The corresponding values for `CO[C@H]1[C@@H](Cn2cc(-c3cccc(C)c3)nn2)OC(O)[C@@H]1O` (stereo partly drawn) [3-b, Furan glucosyl-1,2,3-triazole (3-b)] are 35.6%, 15.3%, 34.1%, 28.4% and 35.4%.
As to `CO[C@H]1[C@@H](Cn2cc(-c3ccc(F)cc3)nn2)OC(OC(C)=O)[C@@H]1OC(C)=O` (stereo partly drawn) [5-d, Furan glucosyl-1,2,3-triazole (5-d)], the inhibition at 50 µg/mL in test [1] stood at 65.2%; with Botrytis cinerea Pers, 23.2%; in test [2], 70.9%; in test [3], 67.6%; in the test with Pyricularia oryzae Cav., 69.2%.
The corresponding values for `CC(=O)OC1O[C@H](Cn2cc(-c3ccc([N+](=O)[O-])cc3)nn2)[C@H](OCc2ccccc2)[C@H]1OC(C)=O` (stereo partly drawn) [6-e, Furan glucosyl-1,2,3-triazole (6-e)] are 50.3%, 27.4%, 59.3%, 56.3% and 48.9%.
Take `COc1ccc(-c2cn(C[C@H]3OC(O)[C@H](O)[C@H]3OC)nn2)cc1` (stereo partly drawn) [3-c, Furan glucosyl-1,2,3-triazole (3-c)]: the inhibition at 50 µg/mL was found to be 38.9% in test [1]; 10.4% with Botrytis cinerea Pers; 29.3% in test [2]; 31.5% in test [3]; 30.1% in the test on Pyricularia oryzae Cav..
In the case of `CO[C@H]1[C@@H](Cn2cc(-c3ccc([N+](=O)[O-])cc3)nn2)OC(O)[C@@H]1O` (stereo partly drawn) [3-e, Furan glucosyl-1,2,3-triazole (3-e)], the inhibition at 50 µg/mL in test [1] was found to be 44.7%; in the test on Botrytis cinerea Pers, 17.1%; in test [2] it was 25.6%; in test [3] it was 39.6%; with Pyricularia oryzae Cav., 23.1%.
The corresponding values for `OC1O[C@H](Cn2cc(-c3ccc(F)cc3)nn2)[C@H](OCc2ccccc2)[C@H]1O` (stereo partly drawn) [4-d, Furan glucosyl-1,2,3-triazole (4-d)] are 35.4%, 20.3%, 37.8%, 34.7% and 35.6%.
Take `CO[C@@H]1[C@H]2OC(C)(C)O[C@H]2O[C@@H]1Cn1cc(-c2ccc(Cl)cc2)nn1` [1-f, Furan glucosyl-1,2,3-triazole (1-f)]: the inhibition at 50 µg/mL in test [1] worked out at 81.2%; in the test on Botrytis cinerea Pers, 71%; in test [2] it was 89%; in test [3], 85.1%; with Pyricularia oryzae Cav., 82.4%.
For `Cc1cccc(-c2cn(C[C@H]3OC(O)[C@H](O)[C@H]3OCc3ccccc3)nn2)c1` (stereo partly drawn) [4-b, Furan glucosyl-1,2,3-triazole (4-b)], in that order: 29.6%, 10.9%, 27.1%, 29.9% and 27.8%.
As to `CO[C@H]1[C@@H](Cn2cc(-c3ccc(Cl)cc3)nn2)OC(O)[C@@H]1O` (stereo partly drawn) [3-f, Furan glucosyl-1,2,3-triazole (3-f)], the inhibition at 50 µg/mL stood at 46.8% in test [1]; 20.5% with Botrytis cinerea Pers; 57.6% in test [2]; 25.3% in test [3]; 50.7% in the test on Pyricularia oryzae Cav..
Turning to `COc1ccc(-c2cn(C[C@H]3OC(OC(C)=O)[C@H](OC(C)=O)[C@H]3OC)nn2)cc1` (stereo partly drawn) [5-c, Furan glucosyl-1,2,3-triazole (5-c)], the inhibition at 50 µg/mL in test [1] is 47.2%; in the test on Botrytis cinerea Pers, 19.2%; in test [2], 30%; in test [3], 43.1%; with Pyricularia oryzae Cav., 40.8%.
The corresponding values for `OC1O[C@H](Cn2cc(-c3ccccc3)nn2)[C@H](OCc2ccccc2)[C@H]1O` (stereo partly drawn) [4-a, Furan glucosyl-1,2,3-triazole (4-a)] are 21.2%, 19.5%, 35.4%, 26.4% and 37.8%.
Regarding `CO[C@H]1[C@@H](Cn2cc(-c3ccc(F)cc3)nn2)OC(O)[C@@H]1O` (stereo partly drawn) [3-d, Furan glucosyl-1,2,3-triazole (3-d)], the inhibition at 50 µg/mL in test [1] is 50.2%; with Botrytis cinerea Pers, 19.1%; in test [2], 40.2%; in test [3], 38.4%; in the test with Pyricularia oryzae Cav. it was 47.8%.
Consider `CC(=O)OC1O[C@H](Cn2cc(-c3ccc(F)cc3)nn2)[C@H](OCc2ccccc2)[C@H]1OC(C)=O` (stereo partly drawn) [6-d, Furan glucosyl-1,2,3-triazole (6-d)], for which the inhibition at 50 µg/mL in test [1] turned out to be 57.1%; in the test on Botrytis cinerea Pers, 26.7%; in test [2] it was 58.6%; in test [3], 64.7%; with Pyricularia oryzae Cav., 50.2%.
With `CO[C@H]1[C@@H](Cn2cc(-c3ccc([N+](=O)[O-])cc3)nn2)OC(OC(C)=O)[C@@H]1OC(C)=O` (stereo partly drawn) [5-e, Furan glucosyl-1,2,3-triazole (5-e)], the inhibition at 50 µg/mL in test [1] was 67.7%; with Botrytis cinerea Pers, 22.1%; in test [2] it was 69.5%; in test [3], 64.9%; with Pyricularia oryzae Cav., 56.9%.
